One assay relates to PANC-1 cells. The experiment in a line: Test I: apoptosis of PANC-1 pancreatic cancer cells (Annexin V-FITC/PI). It counts as cell-based. Conditions: 1 μM, 48 h. How it is done:
(§1) Pancreatic cancer cell lines (COLO357, PANC-1, Capan-2, AsPc-1 cells and MiaPaCa-2 cells obtained from American Type Culture Collection; ATCC, Rockville, Md.) were treated with 1 μM 3-Cl-AHPC and compound 16 for various times. Apoptosis in cells were analyzed by flow cytometry using Annexin V-FITC binding together with propidium iodide (PI) staining (Annexin V-FITC apoptosis Detection Kit 1, BD Biosciences, San Diego, Calif.). Data acquisition was done on a FACS Calibur flow cytometer (BD) and analyzed with CellQuest software (BD Biosciences). 3-Cl-AHPC and compound 16 mediated inhibition of cell growth were determined by 3-(4,5-dimethylthiazol-2-yl)-2,5-diphenyltetrazolium bromide (MTT) assay. The cells were seeded on 96-well plates at a density of 4×10^4 cells/well in a volume of 200 μl culture medium. 1 μM AHP3 and 3-Cl-AHPC in DMSO (final concentration 0.1%) were added to the cells for various times. […] After discarding the medium, MTT precipitates were solubilized with 200 μl DMSO and the plates read on a BioTeK Synergy HT (BioTeK Instrument Inc., Vermont) at an absorbance 570 nm. […] The spheroids were stained with acridine orange/ethidium bromide staining and immediately visualized and photographed with fluorescence microscope (OLYMPUS CKX41). […] Then spheroids were visualized and photographed with a fluorescence microscope.

The test system of the next assay is FFMA-AML cells. The experiment in a line: Annexin V-FITC binding by flow cytometry, FFMA-AML cells. It counts as cell-based, human. Conditions: 1 μM, varying times. On the procedure:
FIG. 3 illustrates the induction of apoptosis and cell death as assessed using Annexin V-FITC binding together with propidium iodide (PI) staining. FFMA-AML and TF(vSRC) cells were exposed to 1 μM 3-Cl-AHPC or compound 16. A) Apoptosis in FFMA-AML and TF(vSRC) cells following 24 and 48 h ARR exposure, respectively. The plots show the distribution of classes of fluorescence intensity versus cell number. The bottom left quadrant represents live cells (both annexin V-FITC and PI negative); the bottom right quadrant represents early apoptotic cells (annexin V-FITC positive but PI negative); and the top right quadrant represents late apoptotic cells (both annexin V-FITC and PI positive). B) Percentage of early apopotic Annexin V-positive cells at the indicated times. […] (p values of <0.05, <0.01 and <0.001 respectively, as determined by the t test).
Apoptosis of cells was determined by (1) acridine orange and ethidium bromide-staining to assess cells with nuclear fragmentation and chromatin condensation as previously described (Farhana L. et al., Cancer Res. 2006; 65:4909-4917) and (2) flow cytometry assessing Annexin V-FITC binding together with propidium iodide staining (Annexin V-FITC apoptosis Detection kit 1, BD Biosciences, San Diego, Calif.). Data acquisition was done on a FACS Calibur flow cytometer (BD) and analyzed with CellQuest software. […]
A general note: In flow cytometry, cells or beads pass a laser one at a time.

Another assay has as its system Capan-2 cells. Nature of the assay: Test I: growth inhibition of Capan-2 cells (MTT). The format is cell-based. The conditions noted are these: 1 μM. On the procedure:
as §1

The subject of the next assay is COLO357 cells. The experiment in a line: Test I: growth inhibition of COLO357 cells (MTT). The format is cell-based. The conditions noted are these: 1 μM. How it is done:
as §1

In a further assay the test system is TF(v-SRC) cells. Nature of the assay: Test B: apoptosis of TF(v-SRC) cells (acridine orange/ethidium bromide, nuclear fragmentation). The format is cell-based. Conditions: nuclear fragmentation, FIG. 2A/B (96 h), read-out: ED50 of apoptosis induction. On the procedure:
FIG. 2 illustrates apoptosis induction in FFMA-AML and TF(v-SRC) cells by 3-Cl-AHPC and compound 16. Cells were seeded at 1×10^4 cells/ml, grown for 24 h and then exposed to 1 μM compound 16 or 3-Cl-AHPC A) at various concentrations of the compound for 96 h and B) for increasing times of exposure. C) Induction of apoptosis by 3-Cl-AHPC, all-trans-retinoic acid, 9-cis-retinoic acid and TTNPB in FFMA-AML and TF(v-SRC) cells. The percentage of apoptotic cells was determined using acridine orange and ethidium bromide staining to determine nuclear fragmentation as described in the general biochemical and pharmacological materials and methods. The error bars represent the mean of three separate determinations +/− the standard deviation (SD).
FFMA-AML cells were obtained from a patient with a diagnosis of AML as indicated by the immunophenotyping described in Table 1. This patient was refractory to the chemotherapy regimens consisting of cytosine arabinoside given with daunomycin as well as high-dose cytosine arabinoside. Peripheral blood samples were obtained from the patient utilizing a Wayne State University Institutional Review Board approved protocol and the leukemic blasts were isolated utilizing Ficoll hypaque. The isolated leukemic cells (representing >99% of the cells) were subsequently cultured in RPMI 1640 supplemented with 10% heat-inactivated fetal bovine serum (FBS) and growth factors interleukin 3 (IL-3), granulocyte-colony stimulating factor (G-CSF), granulocyte/macrophage colony-stimulating factor (GM-CSF), and stem cell factor (SCF) as we have previously reported, and then the cells were maintained in 10% FBS and gentamycin (Zhang Y. et al., Blood, 2003; […]:3743-3752). The TF(v-SRC) leukemia cells have been previously described (Black J. H. et al., Leukemia. 2003; 17:155-159). TF(v-SRC) cells were grown in RPMI 1640 supplemented with 10% heat inactivated FBS.
Apoptosis of cells was determined by (1) acridine orange and ethidium bromide-staining to assess cells with nuclear fragmentation and chromatin condensation as previously described (Farhana L. et al., Cancer Res. 2006; 65:4909-4917) and (2) flow cytometry assessing Annexin V-FITC binding together with propidium iodide staining (Annexin V-FITC apoptosis Detection kit 1, BD Biosciences, San Diego, Calif.). Data acquisition was done on a FACS Calibur flow cytometer (BD) and analyzed with CellQuest software.
Cells were grown in the presence and absence of increasing concentrations of either 3-Cl-AHPC or compound 16 and for varying periods of time. There was a progressive increase in 3-Cl-AHPC- and compound 16-mediated apoptosis in both FFMA-AML and TF(v-SRC) cells with time and with increasing concentrations of the compounds. […] We therefore tested the sensitivity of FFMA-AML and TF(v-SRC) cells to apoptosis induction by tRA, 9-cis RA, and TTNPB (FIG. 2C).

For the next assay, the system named is AsPc-1 cells. Nature of the assay: Test I: growth inhibition of AsPc-1 cells (MTT). It counts as cell-based. Conditions: 1 μM. On the procedure:
as §1

pEC50: −log10 of the molar value.

On to `O=C(O)C=Cc1ccc(-c2ccc(O)c(C34CC5CC(CC(C5)C3)C4)c2)c(Cl)c1` [Compound 3-Cl-AHPC, 4-[3-(1-adamantyl)-4-hydroxyphenyl]-3-chlorocinnamic acid, reference compound], for which the “cells in which induction of apoptosis was noted” value with PANC-1 cells is on record as 50%. The “annexin V-FITC-positive cells” value in the assay on FFMA-AML cells is reported as “progressive increase in annexin V-FITC-positive cells with time”. Also, the inhibition of growth result in the assay on Capan-2 cells, with COLO357 cells and in the assay on AsPc-1 cells was “significant inhibition of growth” throughout. The pEC50 in the assay with TF(v-SRC) cells is 6.12.
For the compound `O=C(O)/C=C/c1cnc(-c2ccc(O)c(C34CC5CC(CC(C5)C3)C4)c2)nc1` [Compound 16, (E)-3-[2-(3-(1-Adamantyl)-4-hydroxyphenyl)-5-pyrimidinyl]-2-propenoic acid], the “cells in which induction of apoptosis was noted” value in the assay on PANC-1 cells is reported as 50%. Further, the “annexin V-FITC-positive cells” value with FFMA-AML cells is given as “progressive increase in annexin V-FITC-positive cells with time”. The inhibition of growth entry with Capan-2 cells, with COLO357 cells and in the assay on AsPc-1 cells was “significant inhibition of growth” in each case. In addition, in the assay on TF(v-SRC) cells, the pEC50 was 6.12.

The record behind these values is patent US9096544B2, “Therapeutic compounds” (Wayne State University, priority 2009, dated 2015).
